From patent publication US20250282785A1, “PYRROLIDINONE DERIVATIVES AS INHIBITORS OF NF KAPPA B INDUCING KINASE” (priority 2022, published 2025)

How the values were obtained:
[1] = target: Recombinant Human NF-Kappab-Inducing Kinase (NIK/MAP3K14) (Homo sapiens, UniProt Q99558); test: Inhibition of auto-phosphorylation of recombinant human NIK/MAP3K14 (AlphaScreen); type: biochemical; details: NIK/MAP3K14 auto-phosphorylation, 5 microM ATP, 1 nM enzyme, 2 h at 25° C.; average of values; read-out: Assay 1 IC50
Recombinant Human NF-Kappab-Inducing Kinase (NIK/MAP3K14), sequence (Q99558 whole entry): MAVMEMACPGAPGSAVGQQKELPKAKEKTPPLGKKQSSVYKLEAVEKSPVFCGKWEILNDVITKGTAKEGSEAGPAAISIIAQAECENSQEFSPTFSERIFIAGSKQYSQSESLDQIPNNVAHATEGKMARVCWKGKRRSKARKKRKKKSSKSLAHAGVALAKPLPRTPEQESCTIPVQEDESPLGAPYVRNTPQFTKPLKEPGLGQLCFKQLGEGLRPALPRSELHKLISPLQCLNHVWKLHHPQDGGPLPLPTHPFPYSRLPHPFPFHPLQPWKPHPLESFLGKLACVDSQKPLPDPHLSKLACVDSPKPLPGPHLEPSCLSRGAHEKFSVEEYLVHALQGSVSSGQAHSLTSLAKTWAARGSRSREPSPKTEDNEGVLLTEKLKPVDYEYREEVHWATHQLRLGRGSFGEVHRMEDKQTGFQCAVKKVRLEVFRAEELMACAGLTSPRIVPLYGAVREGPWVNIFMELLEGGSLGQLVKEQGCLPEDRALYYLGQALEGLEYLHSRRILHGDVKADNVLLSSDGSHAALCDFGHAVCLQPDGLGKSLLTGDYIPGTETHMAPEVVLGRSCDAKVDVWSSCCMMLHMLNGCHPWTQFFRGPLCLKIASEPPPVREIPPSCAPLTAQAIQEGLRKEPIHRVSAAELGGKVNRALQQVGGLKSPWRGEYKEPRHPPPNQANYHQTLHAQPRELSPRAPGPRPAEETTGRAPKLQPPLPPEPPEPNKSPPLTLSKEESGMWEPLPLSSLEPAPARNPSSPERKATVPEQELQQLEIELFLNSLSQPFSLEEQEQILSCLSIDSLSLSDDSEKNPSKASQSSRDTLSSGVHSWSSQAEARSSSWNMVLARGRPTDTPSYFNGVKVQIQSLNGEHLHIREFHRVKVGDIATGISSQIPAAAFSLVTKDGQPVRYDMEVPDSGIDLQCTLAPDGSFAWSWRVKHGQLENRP
Summary of the method: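 GST-tagged NIK (1 nM) auto-phosphorylation with 5 µM ATP in Tris pH 7.5/MgCl2 buffer, 0.7% DMSO, 2 h at 25 °C. Phospho-IKK Ser176/180 antibody detected by AlphaScreen beads. Signal normalized to full-enzyme and no-ATP controls; IC50 from sigmoidal fit of % inhibition vs log concentration.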

[2] = system: p-IKKα levels in L363 (NIK translocated multiple myeloma) cells; test: Effect of compounds on p-IKKα levels in L363 cells (AlphaLISA SureFire Ultra); type: cell-based; details: Homo sapiens, L-363; L363 cells, BAFF stimulated, MG132, 6 h; average of values; read-out: Assay 2 IC50
Summary of the method: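 L363 myeloma cells were BAFF-stimulated (250 ng/ml) overnight in DMEM/0.5% BSA, then exposed 6 h at 37° C to compound (11-point 1:3 series, 0.3% DMSO) with BAFF plus 10 uM MG132. p-IKKα (Ser 176/180) was read by AlphaLISA SureFire Ultra in lysates. IC50 came from sigmoidal fits normalized to stimulated and unstimulated controls.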

| Structure (SMILES) | IC50 [1] [nM] | IC50 [2] [nM] |
| --- | --- | --- |
| CN1CC[C@@](O)(c2cc(-c3cccc(-c4nc(C(N)=O)c(Br)s4)c3)no2)C1=O [Example 215, (R)-5-Bromo-2-(3-(5-(3-hydroxy-1-methyl-2-oxopyrrolidin-3-yl)isoxazol-3-yl)phenyl)thiazole-4-carboxamide] | < 100 | > 501 |
| CN1CC[C@@](O)(c2cc(-c3cccc(-n4nc(C(=O)O)c5c4CCCC5)c3)no2)C1=O [Example 95, (R)-1-(3-(5-(3-Hydroxy-1-methyl-2-oxopyrrolidin-3-yl)isoxazol-3-yl)phenyl)-4,5,6,7-tetrahydro-1H-indazole-3-carboxylic acid] | > 501 | > 501 |
| CN1CC[C@@](O)(c2cc([C@H]3CCCN(c4ccc5ncnc(N)c5n4)C3)no2)C1=O (single isomer, unassigned) [Example 203] | < 100 | > 501 |
| Cc1cc(-c2cccc(-c3cc([C@]4(O)CCN(C)C4=O)on3)c2)nc2c(N)ncnc12 [Example 26, (R)-3-(3-(3-(4-Amino-8-methylpyrido[3,2-d]pyrimidin-6-yl)phenyl)isoxazol-5-yl)-3-hydroxy-1-methylpyrrolidin-2-one] | < 100 | < 100 |
| CNc1ccc(-c2cccc(-c3cc([C@]4(O)CCN(C)C4=O)on3)c2)nc1C(N)=O [Example 104, (R)-6-(3-(5-(3-Hydroxy-1-methyl-2-oxopyrrolidin-3-yl)isoxazol-3-yl)phenyl)-3-(methylamino)picolinamide] | < 100 | < 100 |
| CN1CC[C@@](O)(c2cc(-c3cccc(-c4nc(C(N)=O)c(C5CC5)s4)c3)no2)C1=O [Example 208, (R)-5-Cyclopropyl-2-(3-(5-(3-hydroxy-1-methyl-2-oxopyrrolidin-3-yl)isoxazol-3-yl)phenyl)thiazole-4-carboxamide] | < 100 | 100 to 500 |
| CN1CC[C@@](O)(c2cc(-c3cccc(-c4ncnn5cccc45)c3)no2)C1=O [Example 52, (R)-3-Hydroxy-1-methyl-3-(3-(3-(pyrrolo[2,1-f][1,2,4]triazin-4-yl)phenyl)isoxazol-5-yl)pyrrolidin-2-one] | 100 to 500 | > 501 |
| CN1CC[C@@](O)(c2cc(-c3ccc(F)c(-c4cc(C5CC5)c(N)c(C(N)=O)n4)c3)no2)C1=O [Example 245, (R)-3-Amino-4-cyclopropyl-6-(2-fluoro-5-(5-(3-hydroxy-1-methyl-2-oxopyrrolidin-3-yl)isoxazol-3-yl)phenyl)picolinamide] | < 100 | < 100 |
| Cc1sc(-c2cccc(-c3cc([C@]4(O)CCN(C)C4=O)on3)c2)nc1C(N)=O [Example 217, (R)-2-(3-(5-(3-Hydroxy-1-methyl-2-oxopyrrolidin-3-yl)isoxazol-3-yl)phenyl)-5-methylthiazole-4-carboxamide] | < 100 | 100 to 500 |
| CN1CCC(O)(c2cc(-c3cccc(-c4ncc5ccnc(N)c5n4)c3)on2)C1=O (racemic) [Example 165] | < 100 | > 501 |
| CN1CCC(O)(c2cn(-c3cccc(-c4nc(C(N)=O)c5ccccc5n4)c3)cn2)C1=O (racemic) [Example 19, (R,S)-2-(3-(4-(3-Hydroxy-1-methyl-2-oxopyrrolidin-3-yl)-1H-imidazol-1-yl)phenyl)quinazoline-4-carboxamide] | < 100 | > 501 |
| CN1CC[C@@](O)(c2cc(-c3cccc(-c4cccc5cnc(N)nc45)c3)no2)C1=O [Example 86, (R)-3-(3-(3-(2-Aminoquinazolin-8-yl)phenyl)isoxazol-5-yl)-3-hydroxy-1-methylpyrrolidin-2-one] | < 100 | > 501 |
| CN1CC[C@@](O)(c2cc(-c3cccc(-c4ccc5nccn5c4)c3)no2)C1=O [Example 71, (R)-3-Hydroxy-3-(3-(3-(imidazo[1,2-a]pyridin-6-yl)phenyl)isoxazol-5-yl)-1-methylpyrrolidin-2-one] | > 501 | > 501 |
| CN1CC[C@](O)(c2cc(-c3cccc(-c4nc5c(c(C(N)=O)n4)[C@H]4CC[C@@H](C5)O4)c3)no2)C1=O [Example 172, (5R,8S)-2-(3-(5-((S)-3-Hydroxy-1-methyl-2-oxopyrrolidin-3-yl)isoxazol-3-yl)phenyl)-6,7,8,9-tetrahydro-5H-5,8-epoxycyclohepta[d]pyrimidine-4-carboxamide] | > 501 | > 501 |
| [2H]c1nc(N)c2nc(-c3cccc(-c4ncc([C@]5(O)CCN(C)C5=O)o4)c3)ccc2n1 (single isomer, unassigned) [Example 39] | > 501 | > 501 |
| CN1CC[C@@](O)(c2cc(-c3cccc(-c4cc(N[C@H]5CCOC5)cc(C(N)=O)n4)c3)no2)C1=O [Example 131, 6-(3-(5-((R)-3-Hydroxy-1-methyl-2-oxopyrrolidin-3-yl)isoxazol-3-yl)phenyl)-4-(((S)-tetrahydrofuran-3-yl)amino)picolinamide] | > 501 | > 501 |
| CN1CC[C@@](O)(c2cc(-c3cccc(-c4nccc(C(N)=O)n4)c3)no2)C1=O [Example 146, (R)-2-(3-(5-(3-hydroxy-1-methyl-2-oxopyrrolidin-3-yl)isoxazol-3-yl)phenyl)pyrimidine-4-carboxamide] | < 100 | > 501 |
| CN1CC[C@@](O)(c2cc(-c3ccnc(-c4cc(C5CC5)c(N)c(C(N)=O)n4)c3)no2)C1=O [Example 241, (R)-5-Amino-4-cyclopropyl-4′-(5-(3-hydroxy-1-methyl-2-oxopyrrolidin-3-yl)isoxazol-3-yl)-[2,2′-bipyridine]-6-carboxamide] | < 100 | < 100 |
| CN1CC[C@@](O)(c2cc(-c3cccc(-c4cncc(C(N)=O)n4)c3)no2)C1=O [Example 147, (R)-6-(3-(5-(3-Hydroxy-1-methyl-2-oxopyrrolidin-3-yl)isoxazol-3-yl)phenyl)pyrazine-2-carboxamide] | < 100 | > 501 |
| CN1CC[C@@](O)(c2cc(-c3cccc(-c4ncc5cn[nH]c5n4)c3)no2)C1=O [Example 226, (R)-3-(3-(3-(1H-Pyrazolo[3,4-d]pyrimidin-6-yl)phenyl)isoxazol-5-yl)-3-hydroxy-1-methylpyrrolidin-2-one] | > 501 | > 501 |
| CN1CCC(O)(c2cc(-c3cccc(-c4nccc(C(N)=O)n4)c3)on2)C1=O (racemic) [Example 161, (R,S)-2-(3-(3-(3-Hydroxy-1-methyl-2-oxopyrrolidin-3-yl)isoxazol-5-yl)phenyl)pyrimidine-4-carboxamide] | < 100 | > 501 |
| Cc1ccc(-c2cc([C@]3(O)CCN(C)C3=O)on2)cc1-c1cccc(C(N)=O)n1 [Example 151, (R)-6-(5-(5-(3-Hydroxy-1-methyl-2-oxopyrrolidin-3-yl)isoxazol-3-yl)-2-methylphenyl)picolinamide] | > 501 | > 501 |
| CN1CC[C@@](O)(c2cc(-c3cccc(-c4cccc(C(N)=O)n4)c3)[nH]n2)C1=O (single isomer, unassigned) [Example 31] | 100 to 500 | > 501 |
| CC(=O)Nc1cc(-c2cccc(-c3cc([C@]4(O)CCN(C)C4=O)on3)c2)ccn1 [Example 54, (R)—N-(4-(3-(5-(3-Hydroxy-1-methyl-2-oxopyrrolidin-3-yl)isoxazol-3-yl)phenyl)pyridin-2-yl)acetamide] | 100 to 500 | > 501 |
| CN1CC[C@@](O)(c2cc(-c3cccc(-c4ccc(C(N)=O)o4)c3)no2)C1=O [Example 207, (R)-5-(3-(5-(3-Hydroxy-1-methyl-2-oxopyrrolidin-3-yl)isoxazol-3-yl)phenyl)furan-2-carboxamide] | < 100 | > 501 |
| Cc1cc(-c2cccc(-c3cc([C@]4(O)CCN(C)C4=O)on3)c2)nc(C(N)=O)c1N [Example 45, (R)-3-Amino-6-(3-(5-(3-hydroxy-1-methyl-2-oxopyrrolidin-3-yl)isoxazol-3-yl)phenyl)-4-methylpicolinamide] | < 100 | < 100 |
| COc1cn(C)nc1Nc1cnc(-c2cccc(-c3cc([C@]4(O)CCN(C)C4=O)on3)c2)nc1C(N)=O [Example 144, (R)-2-(3-(5-(3-Hydroxy-1-methyl-2-oxopyrrolidin-3-yl)isoxazol-3-yl)phenyl)-5-((4-methoxy-1-methyl-1H-pyrazol-3-yl)amino)pyrimidine-4-carboxamide] | < 100 | < 100 |
| CN1CC[C@@](O)(c2cc(-c3cccc(-c4nc(C(N)=O)c5[nH]ccc5n4)c3)no2)C1=O [Example 134, (R)-2-(3-(5-(3-Hydroxy-1-methyl-2-oxopyrrolidin-3-yl)isoxazol-3-yl)phenyl)-5H-pyrrolo[3,2-d]pyrimidine-4-carboxamide] | < 100 | < 100 |
| CN1CC[C@@](O)(c2cc(-c3cccc(-c4ncc5cnn(C)c5n4)c3)no2)C1=O [Example 227, (R)-3-Hydroxy-1-methyl-3-(3-(3-(1-methyl-1H-pyrazolo[3,4-d]pyrimidin-6-yl)phenyl)isoxazol-5-yl)pyrrolidin-2-one] | 100 to 500 | > 501 |
| CN1CC[C@@](O)(c2cc(-c3cccc(-c4cc(C5CC5)c(N)c(C(N)=O)n4)c3F)no2)C1=O [Example 242, (R)-3-Amino-4-cyclopropyl-6-(2-fluoro-3-(5-(3-hydroxy-1-methyl-2-oxopyrrolidin-3-yl)isoxazol-3-yl)phenyl)picolinamide] | < 100 | < 100 |
